Measurements reported in patent publication US20250144067A1, “PERSONALIZED STARVATION THERAPY FOR CANCER” (Faeth Therapeutics, Inc., priority 2021, published 2025).
Counter-ions that a name gives are not always drawn.

Columns and labels:
[1] = test system: NCI-H292 lung cancer cells; test: FDA drug screening, complete media vs cholesterol-free media without statin (TABLE 1); type: cell-based, human
[2] = test system: NCI-H292 lung cancer cells; test: FDA drug screening, complete media vs cholesterol-free media with simvastatin (TABLE 2); type: cell-based, human; conditions: for Cholesterol-free media + simvastatin (0.04 μM) / Complete Media: NCI-H292 cells
[3] = Complete minus Cholesterol-free, >0 enhanced anti-cancer activity, about 0 neutral, <0 antagonist
[4] = NCI-H292 cells, cholesterol-free media without statin
[5] = drug in cholesterol-free media with simvastatin 0.04 μM
[6] = complete media vs cholesterol-free media + simvastatin (0.04 μM), >0 enhanced anti-cancer activity, about 0 neutral, <0 antagonist
[7] = NCI-H292 cells, cholesterol-free media without statin, FDA drug library screen
[8] = NCI-H292 cells, complete media, FDA drug library screen
[9] = complete vs cholesterol-free media, >0 enhanced anti-cancer activity, about 0 neutral, <0 antagonist
[10] = FDA drug library screen, cholesterol-free media with simvastatin 0.04 μM
[11] = FDA drug library screen, complete media
[12] = complete media minus cholesterol-free media + simvastatin, >0 enhanced anti-cancer activity, about 0 neutral, <0 antagonist
[13] = Complete minus Cholesterol-free, greater than 0 enhanced anti-cancer activity, about 0 neutral, below 0 antagonist
[14] = NCI-H292 cells, FDA drug library screen, cholesterol-free media without statin
[15] = FDA library drug in cholesterol-free media with simvastatin 0.04 μM
[16] = FDA library drug in complete media
[17] = cholesterol-free media with simvastatin 0.04 μM, FDA drug library screen (TABLE 2)
[18] = complete media, FDA drug library screen (TABLE 2)
[19] = complete media minus cholesterol-free media + simvastatin (0.04 μM), >0 enhanced anti-cancer activity, about 0 neutral, <0 antagonist
[20] = complete vs cholesterol-free media, […]
[21] = complete media vs cholesterol-free media + simvastatin (0.04 μM), […]

How did the Difference [1, 3] turn out when `COc1ccc(C(=O)c2ccccc2)c(O)c1` [Oxybenzone] was run?
The Difference was −0.29.

And the Cholesterol-free [1, 4]?
Its Cholesterol-free is 1.383.

And the Complete ([1]; NCI-H292 cells, complete media)?
The Complete was 1.094.

What about the “Cholesterol-free media + simvastatin (0.04 μM)” value [2, 5] of the same molecule?
Its value is 1.175.

What about the “Complete Media” value ([2]; drug in complete media) of the same molecule?
Its value is 0.918.

What about the Difference [2, 6] of the same molecule?
The Difference was −0.26.

`CCCCOc1cc(C(=O)OCCN(CC)CC)ccc1N` [Oxybuprocaine hydrochloride] was tested. Which Cholesterol-free [1, 7] did it give?
Its Cholesterol-free is 0.7998.

What about the Complete [1, 8] of the same molecule?
The Complete was 0.9021.

And the Difference [1, 9]?
Its Difference is 0.10.

What about the “Cholesterol-free media + simvastatin (0.04 μM)” value [2, 10] of the same molecule?
Its value is 0.4662.

What about the “Complete Media” value [2, 11] of the same molecule?
The value was 1.022.

What about the Difference [2, 12] of the same molecule?
The Difference was 0.56.

How did the Cholesterol-free [1, 4] turn out when `CCN(CC)CC#CCOC(=O)C(O)(c1ccccc1)C1CCCCC1` (centres unmarked) [Oxybutynin (chloride)] was run?
The Cholesterol-free was 1.171.

And the Complete ([1]; NCI-H292 cells, complete media)?
Its Complete is 0.8317.

What about the Difference ([1]; complete vs cholesterol-free media, greater than 0 enhanced anti-cancer activity, about 0 neutral, below 0 antagonists) of the same molecule?
The Difference was −0.34.

And the “Cholesterol-free media + simvastatin (0.04 μM)” value [2, 5]?
Its value is 1.236.

What about the “Complete Media” value ([2]; drug in complete media) of the same molecule?
The value was 1.034.

What about the Difference [2, 6] of the same molecule?
The Difference was −0.20.

Which results are given for `CCN(CC)CC#CCOC(=O)C(O)(c1ccccc1)C1CCCCC1` (centres unmarked) [Oxybutynin]?
Difference [1, 13]: −0.10; Cholesterol-free [1, 14]: 1.075; Complete ([1]; NCI-H292 cells, FDA drug library screen, complete media): 0.9761; Cholesterol-free media + simvastatin (0.04 μM) [2, 10]: 0.7436; Complete Media [2, 11]: 1.133; Difference [2, 12]: 0.39

Which results are given for `O=C1CCC[C@@H]2[C@H]3CCC[N+]4([O-])CCC[C@@H](CN12)[C@@H]34` (some centres unmarked) [Oxymatrine]?
Difference [1, 3]: 0.05; Cholesterol-free [1, 7]: 0.9493; Complete [1, 8]: 0.9958; Cholesterol-free media + simvastatin (0.04 μM) [2, 15]: 1.185; Complete Media [2, 16]: 0.9014; Difference [2, 6]: −0.28

With `CCCCC1C(=O)N(c2ccccc2)N(c2ccc(O)cc2)C1=O` (centres unmarked) [Oxyphenbutazone] as the molecule, how does the Difference [1, 13] read?
The Difference was −0.11.

What about the Cholesterol-free [1, 14] of the same molecule?
Its Cholesterol-free is 1.282.

What about the “Cholesterol-free media + simvastatin (0.04 μM)” value [2, 15] of the same molecule?
The value was 1.844.

What about the “Complete Media” value [2, 16] of the same molecule?
Its value is 1.056.

And the Difference [2, 6]?
Its Difference is −0.79.

Which Difference ([1]; Complete minus Cholesterol-free, greater than 0 enhanced anti-cancer activity, about 0 neutral, below 0 antagonists) does the source give for `CN(C)[C@@H]1C(O)=C(C(N)=O)C(=O)[C@@]2(O)C(O)=C3C(=O)c4c(O)cccc4[C@@](C)(O)[C@H]3[C@H](O)[C@@H]12` [Oxytetracycline (hydrochloride)] here?
Its Difference is −0.72.

And the Cholesterol-free ([1]; NCI-H292 cells in cholesterol-free media without statin)?
Its Cholesterol-free is 1.728.

What about the Complete ([1]; NCI-H292 cells in complete media) of the same molecule?
The Complete was 1.007.

What about the “Cholesterol-free media + simvastatin (0.04 μM)” value [2, 17] of the same molecule?
Its value is 0.991.

What about the “Complete Media” value [2, 18] of the same molecule?
The value was 0.9652.

What about the Difference [2, 19] of the same molecule?
Its Difference is −0.03.

How did the Cholesterol-free [1, 7] turn out when `CN(C)[C@@H]1C(O)=C(C(N)=O)C(=O)[C@@]2(O)C(O)=C3C(=O)c4c(O)cccc4[C@@](C)(O)[C@H]3[C@H](O)[C@@H]12` [Oxytetracycline] was run?
The Cholesterol-free was 0.9301.

And the Complete [1, 8]?
Its Complete is 1.086.

And the Difference [1, 9]?
Its Difference is 0.16.

And the “Cholesterol-free media + simvastatin (0.04 μM)” value [2, 15]?
Its value is 2.284.

And the “Complete Media” value [2, 16]?
Its value is 1.447.

What about the Difference [2, 6] of the same molecule?
The Difference was −0.84.

Which results are given for `CC[C@H](C)[C@@H]1NC(=O)[C@H](Cc2ccc(O)cc2)NC(=O)[C@@H](N)CSSC[C@@H](C(=O)N2CCC[C@H]2C(=O)N[C@@H](CC(C)C)C(=O)NCC(N)=O)NC(=O)[C@H](CC(N)=O)NC(=O)[C@H](CCC(N)=O)NC1=O` [Oxytocin]?
Cholesterol-free [1, 4]: 1.585; Complete ([1]; NCI-H292 cells, complete media): 1.211; Difference [1, 20]: −0.37; Cholesterol-free media + simvastatin (0.04 μM) [2, 10]: 1.057; Complete Media [2, 11]: 0.9051; Difference [2, 21]: −0.15

Which Cholesterol-free [1, 7] does the source give for `O=C(O)/C=C/c1ccc(Cn2ccnc2)cc1` [Ozagrel (hydrochloride)] here?
The Cholesterol-free was 0.9304.

What about the Complete [1, 8] of the same molecule?
Its Complete is 1.021.

And the Difference [1, 9]?
Its Difference is 0.09.

What about the “Cholesterol-free media + simvastatin (0.04 μM)” value [2, 10] of the same molecule?
The value was 1.247.

And the “Complete Media” value [2, 11]?
Its value is 1.131.

And the Difference [2, 6]?
The Difference was −0.12.

`O=C(O)/C=C/c1ccc(Cn2ccnc2)cc1` [Ozagrel (sodium)] was tested. Which Difference [1, 3] did it give?
The Difference was −0.07.

What about the Cholesterol-free [1, 7] of the same molecule?
Its Cholesterol-free is 1.134.

And the Complete [1, 8]?
The Complete was 1.068.

What about the “Cholesterol-free media + simvastatin (0.04 μM)” value [2, 17] of the same molecule?
The value was 1.082.

What about the “Complete Media” value [2, 18] of the same molecule?
Its value is 1.026.

What about the Difference [2, 19] of the same molecule?
Its Difference is −0.06.

`O=C(O)/C=C/c1ccc(Cn2ccnc2)cc1` [Ozagrel] was tested. Which Difference [1, 3] did it give?
Its Difference is −0.04.

What about the Cholesterol-free [1, 7] of the same molecule?
Its Cholesterol-free is 1.079.

And the Complete [1, 8]?
Its Complete is 1.034.

And the “Cholesterol-free media + simvastatin (0.04 μM)” value [2, 10]?
The value was 1.504.

What about the “Complete Media” value [2, 11] of the same molecule?
The value was 1.942.

And the Difference [2, 12]?
Its Difference is 0.44.

With `CC(C)Oc1ccc(-c2nc(-c3cccc4c3CC[C@@H]4NCCO)no2)cc1C#N` [Ozanimod] as the molecule, how does the Difference [1, 3] read?
The Difference was −0.03.

What about the Cholesterol-free [1, 7] of the same molecule?
Its Cholesterol-free is 1.036.

What about the Complete [1, 8] of the same molecule?
The Complete was 1.004.

What about the “Cholesterol-free media + simvastatin (0.04 μM)” value [2, 5] of the same molecule?
The value was 1.119.

And the “Complete Media” value ([2]; drug in complete media)?
Its value is 0.9531.

What about the Difference [2, 6] of the same molecule?
Its Difference is −0.17.

With `CNc1ncc(-c2ccc3c(=O)c(C(=O)O)cn(C4CC4)c3c2C)cc1C` [Ozenoxacin] as the molecule, how does the Cholesterol-free [1, 4] read?
The Cholesterol-free was 1.08.

What about the Complete ([1]; NCI-H292 cells, complete media) of the same molecule?
The Complete was 0.7589.

What about the Difference [1, 20] of the same molecule?
Its Difference is −0.32.

What about the “Cholesterol-free media + simvastatin (0.04 μM)” value [2, 10] of the same molecule?
Its value is 0.8626.

What about the “Complete Media” value [2, 11] of the same molecule?
The value was 0.762.

And the Difference [2, 21]?
Its Difference is −0.10.
